Legend:
hMC4R = hMC4R (Homo sapiens (Human), UniProt P32245); test: Transactivation test: melanocortin receptors (pCRE-Luc luciferase reporter), hMC4R; type: cell-based; settings: HEK293 transfected with pCRE-Luc and hMC4R; products tested alone (agonist), 6 h incubation; % activity vs NDP-MSH 10 nM; IA: inactive
Protocol: (§1) Transactivation Test: Melanocortin Receptors
(§2) HEK293 lines are transfected with the pCRE-Luc and hMC1R, hMC3R, hMC4R or hMC5R vectors. The cells are cultured at 37° C., 5% CO2, in DMEM medium supplemented with 10% of foetal calf serum.
(§3) In the presence of an activator (agonist), the melanocortin receptor will activate the cAMP pathway which, via the CRE-Luc vector, will result in the synthesis of luciferase. After the addition of a lysis buffer containing a luminescent substrate for luciferase, it will be possible to measure the luminescence proportional to the degree of activation or of inhibition of the receptor.
(§4) The products are solubilized at 10 mM in DMSO. They are tested in the form of dose-response at a final DMSO concentration of 0.1%. The range comprising 10 points and one zero begins at 10 μM with 4-fold dilutions. For testing agonists, the products are tested alone. For determining the behaviour of antagonists, the products of interest are tested in the presence of 1 nM NDP-MSH (reference agonist). The cells are seeded at a rate of 5000 cells per well (384 well plate) in serum-free DMEM medium, and incubated overnight at 37° C., 5% CO2.
(§5) The products and the reference ligand (NDP-MSH) are added the following day, and the plates are again incubated for 6 h at 37° C., 5% CO2. After the addition of lysis buffer containing luciferin, the plates are read on a Top-Count instrument. The results are standardized as % activity using the 100% (cells+NDP-MSH at 10 nM) and 0% (cells alone) controls. An EC50 is calculated for each product using the XLFit software. The results are given in nM.

hMC1R = hMC1R (Homo sapiens (Human), UniProt Q01726); test: Transactivation test: melanocortin receptors (pCRE-Luc luciferase reporter), hMC1R; type: cell-based; settings: HEK293 transfected with pCRE-Luc and hMC1R; products tested alone (agonist), 6 h incubation; % activity vs NDP-MSH 10 nM; IA: inactive
Sequence of hMC1R (Q01726 whole entry): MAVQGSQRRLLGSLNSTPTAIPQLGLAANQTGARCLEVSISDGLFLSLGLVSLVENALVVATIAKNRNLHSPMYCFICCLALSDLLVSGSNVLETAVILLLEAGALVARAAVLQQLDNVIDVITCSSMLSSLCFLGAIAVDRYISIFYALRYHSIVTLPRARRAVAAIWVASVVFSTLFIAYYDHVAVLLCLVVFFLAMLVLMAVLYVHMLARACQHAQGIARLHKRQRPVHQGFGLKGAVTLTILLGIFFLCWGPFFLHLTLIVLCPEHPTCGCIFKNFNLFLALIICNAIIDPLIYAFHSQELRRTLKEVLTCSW
Protocol: as §1, §2, §3, §4, §5

Sequence of hMC4R (P32245 whole entry): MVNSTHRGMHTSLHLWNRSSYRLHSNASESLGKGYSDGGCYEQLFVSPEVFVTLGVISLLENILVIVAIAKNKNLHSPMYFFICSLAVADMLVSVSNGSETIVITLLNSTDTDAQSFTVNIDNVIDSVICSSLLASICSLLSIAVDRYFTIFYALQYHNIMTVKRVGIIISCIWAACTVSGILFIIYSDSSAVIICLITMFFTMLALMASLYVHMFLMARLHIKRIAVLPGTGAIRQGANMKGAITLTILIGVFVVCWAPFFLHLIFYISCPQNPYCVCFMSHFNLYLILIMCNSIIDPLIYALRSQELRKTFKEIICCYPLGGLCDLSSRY

CCOC1(c2ccccc2C)CN(C(=O)[C@H](Cc2ccc(OC)cc2)NC(=O)CCc2c[nH]cn2)C1 [Compound 13, N-[(S)-2-(3-ethoxy-3-o-tolylazetidin-1-yl)-1-(4-methoxybenzyl)-2-oxoethyl]-3-(1H-imidazol-4-yl)propionamide]
EC50 (hMC4R): 15000 nM | EC50 (hMC1R): 2000 nM

COc1ccc(C[C@H](NC(=O)[C@H](Cc2c[nH]cn2)NC(=O)c2ccccc2)C(=O)N2CC(OC(C)=O)(c3ccccc3C)C2)cc1 [Compound 5, 1-[(S)-2-[(S)-2-benzoylamino-3-(1H-imidazol-4-yl)propionylamino]-3-(4-methoxyphenyl)propionyl]-3-o-tolylazetidin-3-yl acetate]
EC50 (hMC4R): 8000 nM | EC50 (hMC1R): 4000 nM

COc1ccc(C[C@@H](NC(=O)CCc2nc[nH]c2C)C(=O)N2CC(OCC3CCC3)(c3ccccc3C)C2)cc1 [Compound 79, N-[(R)-2-(3-Cyclobutylmethoxy-3-o-tolylazetidin-1-yl)-1-(4-methoxybenzyl)-2-oxoethyl]-3-(5-methyl-1H-imidazol-4-yl)propionamide]
EC50 (hMC4R): 1000 nM | EC50 (hMC1R): 15 nM

CCCCOC1(c2cccc(F)c2)CN(C(=O)[C@H](Cc2ccc(OC)cc2)NC(=O)[C@H](Cc2c[nH]cn2)NC(=O)c2ccccc2)C1 [Compound 9, N-[(S)-1-[(S)-2-[3-butoxy-3-(3-fluorophenyl)azetidin-1-yl]-1-(4-methoxybenzyl)-2-oxoethylcarbamoyl]-2-(1H-imidazol-4-yl)ethyl]benzamide]
EC50 (hMC4R): 1000 nM | EC50 (hMC1R): 120 nM

CCCCCC1(c2ccccc2)CN(C(=O)[C@@H](Cc2ccc(F)c(F)c2)NC(=O)CCc2c[nH]cn2)C1 [Compound 53, N-[(R)-1-(3,4-difluorobenzyl)-2-oxo-2-(3-pentyl-3-phenylazetidin-1-yl)ethyl]-3-(1H-imidazol-4-yl)propionamide]
EC50 (hMC4R): 4000 nM | EC50 (hMC1R): 1000 nM

CCCCOC1(c2ccccc2C)CN(C(=O)[C@@H](Cc2ccc(OC)cc2)NC(=O)CCc2c[nH]nn2)C1 [Compound 39, N-[(R)-2-(3-butoxy-3-o-tolylazetidin-1-yl)-1-(4-methoxybenzyl)-2-oxoethyl]-3-(1H-[1,2,3]triazol-4-yl)propionamide]
EC50 (hMC4R): 2000 nM | EC50 (hMC1R): 8000 nM

CCCCOC1(c2ccccc2C)CN(C(=O)[C@@H](Cc2ccc(OC)cc2)NC(=O)CCc2cn(C)cn2)C1 [Compound 69, N-[(R)-2-(3-Butoxy-3-o-tolylazetidin-1-yl)-1-(4-methoxybenzyl)-2-oxoethyl]-3-(1-methyl-1H-imidazol-4-yl)propionamide]
EC50 (hMC4R): 8000 nM | EC50 (hMC1R): 1000 nM

CCCCCC1(c2ccccc2)CN(C(=O)[C@@H](Cc2ccc(F)cc2)NC(=O)CCc2c[nH]cn2)C1 [Compound 46, N-[(R)-1-(4-fluorobenzyl)-2-oxo-2-(3-pentyl-3-phenylazetidin-1-yl)ethyl]-3-(1H-imidazol-4-yl)propionamide]
EC50 (hMC4R): 4000 nM | EC50 (hMC1R): 1000 nM

CCCCOC1(c2ccccc2F)CN(C(=O)[C@@H](Cc2ccc(OC)cc2)NC(=O)CCc2c[nH]cn2)C1 [Compound 68, N-[(R)-2-[3-Butoxy-3-(2-fluorophenyl)azetidin-1-yl]-1-(4-methoxybenzyl)-2-oxoethyl]-3-(1H-imidazol-4-yl)propionamide]
EC50 (hMC4R): 2000 nM | EC50 (hMC1R): 60 nM

CCCCCC1(c2ccccc2)CN(C(=O)[C@@H](Cc2cccc(C(F)(F)F)c2)NC(=O)CCc2c[nH]cn2)C1 [Compound 50, N-[(R)-2-oxo-2-(3-pentyl-3-phenylazetidin-1-yl)-1-(3-trifluoromethylbenzyl)ethyl]-3-(1H-imidazol-4-yl)propionamide]
EC50 (hMC4R): 500 nM | EC50 (hMC1R): 1000 nM

CCCCCC1(c2ccccc2)CN(C(=O)[C@@H](Cc2ccc(Cl)cc2Cl)NC(=O)CCc2c[nH]cn2)C1 [Compound 58, N-[(R)-1-(2,4-dichlorobenzyl)-2-oxo-2-(3-pentyl-3-phenylazetidin-1-yl)ethyl]-3-(1H-imidazol-4-yl)propionamide]
EC50 (hMC4R): 500 nM | EC50 (hMC1R): 2000 nM

COc1ccc(C[C@H](NC(=O)CCc2c[nH]cn2)C(=O)N2CC(O)(c3ccccc3C)C2)cc1 [Compound 11, N-[(S)-2-(3-hydroxy-3-o-tolylazetidin-1-yl)-1-(4-methoxybenzyl)-2-oxoethyl]-3-(1H-imidazol-4-yl)propionamide]
EC50 (hMC4R): 8000 nM | EC50 (hMC1R): 4000 nM

CCCCOC1(c2ccccc2C)CN(C(=O)[C@@H](Cc2ccc(OC)cc2)NC(=O)CCC2N=NC(C)=N2)C1 (stereo partly drawn) [Compound 40, N-[(R)-2-(3-butoxy-3-o-tolylazetidin-1-yl)-1-(4-methoxybenzyl)-2-oxoethyl]-3-(5-methyl-3H-[1,2,4]triazol-3-yl)propionamide]
EC50 (hMC4R): 500 nM | EC50 (hMC1R): 8000 nM

COc1ccc(C[C@@H](NC(=O)CCc2c[nH]cn2)C(=O)N2CC(OCC3CC3)(c3ccccc3)C2)cc1 [Compound 28, N-[(R)-2-(3-cyclopropylmethoxy-3-phenylazetidin-1-yl)-1-(4-methoxybenzyl)-2-oxoethyl]-3-(1H-imidazol-4-yl)propionamide]
EC50 (hMC4R): 8000 nM | EC50 (hMC1R): 1000 nM

CCCCC1(c2ccccc2)CN(C(=O)[C@@H](Cc2ccc(OC)cc2)NC(=O)CCc2c[nH]cn2)C1 [Compound 27, N-[(R)-2-(3-butyl-3-phenylazetidin-1-yl)-1-(4-methoxybenzyl)-2-oxoethyl]-3-(1H-imidazol-4-yl)propionamide]
EC50 (hMC4R): 8000 nM | EC50 (hMC1R): 500 nM

CCCCOC1(c2ccc(F)cc2)CN(C(=O)[C@@H](Cc2ccccc2)NC(=O)CCC2=NCC=N2)C1 [Compound 34, N-{(R)-1-benzyl-2-[3-butoxy-3-(4-fluoro-phenyl)azetidin-1-yl]-2-oxoethyl}-3-(4H-imidazol-2-yl)propionamide]
EC50 (hMC4R): 2000 nM | EC50 (hMC1R): 1000 nM

CCCCOC1(c2ccccc2)CN(C(=O)[C@@H](Cc2ccccc2)NC(=O)CCc2c[nH]cn2)C1 [Compound 35, N-[(R)-1-benzyl-2-(3-butoxy-3-phenylazetidin-1-yl)-2-oxoethyl]-3-(1H-imidazol-4-yl)propionamide]
EC50 (hMC4R): 2000 nM | EC50 (hMC1R): 500 nM

CC#CCOC1(c2ccccc2C)CN(C(=O)[C@@H](Cc2ccc(OC)cc2)NC(=O)CCc2nc[nH]c2C)C1 [Compound 76, N-[(R)-2-(3-But-2-ynyloxy-3-o-tolylazetidin-1-yl)-1-(4-methoxybenzyl)-2-oxoethyl]-3-(5-methyl-1H-imidazol-4-yl)propionamide]
EC50 (hMC4R): 4000 nM | EC50 (hMC1R): 30 nM

CCCCCC1(c2ccccc2)CN(C(=O)[C@@H](Cc2ccccc2F)NC(=O)CCc2c[nH]cn2)C1 [Compound 57, N-[(R)-1-(2-fluorobenzyl)-2-oxo-2-(3-pentyl-3-phenylazetidin-1-yl)ethyl]-3-(1H-imidazol-4-yl)propionamide]
EC50 (hMC4R): 4000 nM | EC50 (hMC1R): 1000 nM

CCCCCC1(c2ccccc2)CN(C(=O)[C@@H](Cc2ccc(OC)cc2)NC(=O)CCc2cncn2C)C1 [Compound 64, N-[(R)-1-(4-methoxybenzyl)-2-oxo-2-(3-pentyl-3-phenylazetidin-1-yl)ethyl]-3-(3-methyl-3H-imidazol-4-yl)propionamide]
EC50 (hMC4R): 500 nM | EC50 (hMC1R): 2000 nM

CCCC(=O)OC1(c2ccc(F)cc2)CN(C(=O)[C@H](Cc2ccc(OC)cc2)NC(=O)[C@H](Cc2c[nH]cn2)NC(=O)c2ccccc2)C1 [Compound 6, 1-[(S)-2-[(S)-2-benzoylamino-3-(1H-imidazol-4-yl)propionylamino]-3-(4-methoxyphenyl)propionyl]-3-(4-fluorophenyl)azetidin-3-yl ester of butyric acid]
EC50 (hMC4R): 8000 nM | EC50 (hMC1R): 2000 nM

CCCCOC1(c2ccc(F)cc2)CN(C(=O)[C@@H](Cc2cccc(F)c2)NC(=O)CCc2c[nH]cn2)C1 [Compound 31, N-[(R)-2-[3-butoxy-3-(4-fluorophenyl)azetidin-1-yl]-1-(3-fluorobenzyl)-2-oxoethyl]-3-(1H-imidazol-4-yl)propionamide]
EC50 (hMC4R): 4000 nM | EC50 (hMC1R): 500 nM

CCCCOC1(c2ccccc2C)CN(C(=O)[C@@H](Cc2ccc(OC)cc2)NC(=O)CC(O)c2c[nH]cn2)C1 (stereo partly drawn) [Compound 74, N-[(R)-2-(3-Butoxy-3-o-tolylazetidin-1-yl)-1-(4-methoxybenzyl)-2-oxoethyl]-3-hydroxy-3-(1H-imidazol-4-yl)propionamide]
EC50 (hMC4R): 8000 nM | EC50 (hMC1R): 250 nM

COc1ccc(C[C@H](NC(=O)[C@H](Cc2c[nH]cn2)NC(=O)c2ccccc2)C(=O)N2CC(O)(c3ccccc3C)C2)cc1 [Compound 4, N-[(S)-1-[(S)-2-(3-hydroxy-3-o-tolylazetidin-1-yl)-1-(4-methoxybenzyl)-2-oxoethylcarbamoyl]-2-(1H-imidazol-4-yl)ethyl]benzamide]
EC50 (hMC4R): 4000 nM | EC50 (hMC1R): 250 nM

CCCCCC1(c2ccccc2C)CN(C(=O)[C@@H](Cc2ccc(OC)cc2)NC(=O)CCc2c[nH]cn2)C1 [Compound 37, N-[(R)-1-(4-methoxybenzyl)-2-oxo-2-(3-pentyl-3-o-tolylazetidin-1-yl)ethyl]-3-(1H-imidazol-4-yl)propionamide]
EC50 (hMC4R): 2000 nM | EC50 (hMC1R): 250 nM

From US9630949B2, “Oxoazetidine derivatives, process for the preparation thereof and use thereof in human medicine and in cosmetics” (GALDERMA RESEARCH & DEVELOPMENT, priority 2008, dated 2017)
